Measured values as given in patent publication US20250230193A1, “CYCLIC COMPOUND HAVING SELECTIVE KRAS INHIBITORY EFFECT ON HRAS AND NRAS” (CHUGAI SEIYAKU KABUSHIKI KAISHA, priority 2022, published 2025).
Where a SMILES comes first, the peptide text is derived from it. Bridges are numbered along the chain shown (N, C = ends). [ ]: non-standard residue; d: D form. The star is where a group is joined. hPhe(3-Cl-4-CF3) = N[C@@H](CCc1ccc(C(F)(F)F)c(Cl)c1)C(=O)O; NPrPhe(4-CF3) = CCCN[C@@H](Cc1ccc(C(F)(F)F)cc1)C(=O)O; NMeGly(cPent) = CN[C@H](C(=O)O)C1CCCC1; Pro(4,4-F2) = O=C(O)[C@@H]1CC(F)(F)CN1; Hyp = O=C(O)[C@@H]1C[C@@H](O)CN1; NMeD = CN[C@@H](CC(=O)O)C(=O)O; NMeL = CN[C@@H](CC(C)C)C(=O)O; Morpholide = C1CN(*)CCO1; Ac5c = NC1(C(=O)O)CCCC1; Aze = O=C(O)[C@@H]1CCN1; Ac4c = NC1(C(=O)O)CCC1; Sar = CNCC(=O)O

Key:
[1] = target: GDP-bound HRAS wild-type protein (Homo sapiens, UniProt P01112); experiment: Binding to HRAS by surface plasmon resonance (SPR), Single Cycle Kinetics
Sequence of GDP-bound HRAS wild-type protein (P01112 whole entry): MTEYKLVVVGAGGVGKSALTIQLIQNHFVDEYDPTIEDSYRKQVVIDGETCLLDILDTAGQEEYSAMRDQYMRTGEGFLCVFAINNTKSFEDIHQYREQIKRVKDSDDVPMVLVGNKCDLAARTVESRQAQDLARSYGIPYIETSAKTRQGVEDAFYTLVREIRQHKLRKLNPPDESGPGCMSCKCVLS

[2] = target: GDP-bound NRAS wild-type protein (Homo sapiens, UniProt P01111); experiment: Binding to NRAS by surface plasmon resonance (SPR), Single Cycle Kinetics
Sequence of GDP-bound NRAS wild-type protein (P01111 whole entry): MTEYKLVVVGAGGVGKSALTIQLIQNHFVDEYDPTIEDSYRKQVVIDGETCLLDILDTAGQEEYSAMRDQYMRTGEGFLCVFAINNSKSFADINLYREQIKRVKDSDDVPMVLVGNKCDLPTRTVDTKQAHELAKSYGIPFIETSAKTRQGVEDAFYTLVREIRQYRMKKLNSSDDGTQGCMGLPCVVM

## CC[C@H](C)[C@@H]1NC(=O)[C@H](CC2CC2)N(C)C(=O)C[C@@H](C(=O)N(C)C)N(C)C(=O)[C@H](C2CCCC2)N(C)C(=O)C2(CCC2)N(C)C(=O)[C@@H]2CCCN2C(=O)[C@H](CCc2cc(F)c(C(F)(F)F)c(F)c2)NC(=O)CN(C)C(=O)[C@H](Cc2ccc(C)cc2)N2CC/C=C\C[C@@H](C2=O)N(C)C(=O)CN(C)C1=O [PP1796]
[1]; KD ratio, GDP-bound HRAS wild-type vs GDP-bound KRAS wild-type, SPR
  HRAS/KRAS (ratio of KD value for HRAS to KD value for KRAS): B (a compound having 3 or more and less than 10 is denoted as B)
[2]; KD ratio, GDP-bound NRAS wild-type vs GDP-bound KRAS wild-type, SPR
  NRAS/KRAS (ratio of KD value for NRAS to KD value for KRAS): A (a compound having 10 or more and less than 20 is denoted as A)

## CCCN1C(=O)[C@@H]2CCN2C(=O)CN(C)C(=O)[C@H]([C@@H](C)CC)NC(=O)[C@H](CC(C)C)N(C)C(=O)C[C@@H](C(=O)N(C)C)NC(=O)[C@H](C2CCCC2)N(C)C(=O)C2(CCCC2)NC(=O)[C@@H]2C[C@@H](OCC)CN2C(=O)[C@H](CCc2ccc(C(F)(F)F)c(Cl)c2)NC(=O)CN(C)C(=O)[C@@H]1Cc1ccc(C(F)(F)F)cc1 [PP0389] ([NMeL]I[Sar][Aze][NPrPhe(4-CF3)][Sar][hPhe(3-Cl-4-CF3)][Hyp](Et)[Ac5c][NMeGly(cPent)]D-NMe2; lactam N-11)
[1]; KD ratio HRAS/KRAS, SPR
  HRAS/KRAS (ratio of KD for GDP-bound HRAS wild-type to KD for KRAS): B (a compound having 3 or more and less than 10 is denoted as B)
[2]; KD ratio NRAS/KRAS, SPR
  NRAS/KRAS (ratio of KD for GDP-bound NRAS wild-type to KD for KRAS): C (A compound having a KD ratio of 0.1 or more and less than 3 is denoted as C)

## CCO[C@@H]1C[C@H]2C(=O)NC3(CCC3)C(=O)N(C)[C@@H](CC(C)(C)C)C(=O)N(C)[C@H](C(=O)N3CCCC3)CC(=O)N(C)[C@@H](CC)C(=O)N[C@@H]([C@@H](C)CC)C(=O)N(C)CC(=O)N(C)[C@H]3C/C=C\CCN(C3=O)[C@@H](CC3CCCCC3)C(=O)N(C)CC(=O)N[C@@H](CCc3cc(F)c(C(F)(F)F)c(F)c3)C(=O)N2C1 [PP2772]
[1]; KD ratio HRAS/KRAS, class symbols
  HRAS/KRAS (ratio of KD value with respect to GDP-bound HRAS wild-type protein to KD value with respect to KRAS): B (a compound having 3 or more and less than 10 is denoted as B)
[2]; KD ratio NRAS/KRAS, class symbols
  NRAS/KRAS (ratio of KD value with respect to GDP-bound NRAS wild-type protein to KD value with respect to KRAS): B (a compound having 3 or more and less than 10 is denoted as B)

## CCO[C@@H]1C[C@H]2C(=O)NC3(CCC3)C(=O)N(C)[C@@H](C3CCCC3)C(=O)N(C)[C@H](C(=O)N(C)CCOC)CC(=O)N(C)[C@@H](CC(C)C)C(=O)N[C@@H]([C@@H](C)CC)C(=O)N(C)CC(=O)N(C)[C@H]3C/C=C\CCN(C3=O)[C@@H](Cc3ccc(C(F)(F)F)cc3)C(=O)N(C)CC(=O)N[C@@H](CCc3ccc(C(F)(F)F)c(OC)c3)C(=O)N2C1 [PP1324]
[1]; SPR, KD ratio class
  HRAS/KRAS (ratio of KD value for GDP-bound HRAS wild-type protein to KD value for KRAS): A (a compound having 10 or more and less than 20 is denoted as A)
[2]; SPR, KD ratio class
  NRAS/KRAS (ratio of KD value for GDP-bound NRAS wild-type protein to KD value for KRAS): A (a compound having 10 or more and less than 20 is denoted as A)

## CCCN1C(=O)CN(C)C(=O)CN(C)C(=O)[C@H]([C@@H](C)CC)NC(=O)[C@H](CC(C)C)N(C)C(=O)C[C@@H](C(=O)N2CCOCC2)N(C)C(=O)[C@H](C2CCCC2)N(C)C(=O)C2(CCCC2)NC(=O)[C@@H]2C[C@@H](OC)CN2C(=O)[C@H](CCc2ccc(C(F)(F)F)c(Cl)c2)NC(=O)CN(C)C(=O)[C@@H]1Cc1ccc(C(F)(F)F)cc1 [PP0262] ([NMeL]I[Sar][Sar][NPrPhe(4-CF3)][Sar][hPhe(3-Cl-4-CF3)][Hyp](Me)[Ac5c][NMeGly(cPent)][NMeD]-Morpholide; lactam N-11)
[1]; KD ratio HRAS/KRAS, SPR
  HRAS/KRAS (ratio of KD for GDP-bound HRAS wild-type to KD for KRAS): B (a compound having 3 or more and less than 10 is denoted as B)
[2]; KD ratio NRAS/KRAS, SPR
  NRAS/KRAS (ratio of KD for GDP-bound NRAS wild-type to KD for KRAS): B (a compound having 3 or more and less than 10 is denoted as B)

## CCCN1C(=O)CN(C)C(=O)CN(C)C(=O)[C@H]([C@@H](C)CC)NC(=O)[C@H](CC(C)C)N(C)C(=O)C[C@@H](C(=O)N2CCOCC2)NC(=O)[C@H](C2CCCC2)N(C)C(=O)C2(CCC2)NC(=O)[C@@H]2CC(F)(F)CN2C(=O)[C@H](CCc2ccc(C(F)(F)F)c(Cl)c2)NC(=O)CN(C)C(=O)[C@@H]1Cc1ccc(C(F)(F)F)cc1 [PP0322] ([NMeL]I[Sar][Sar][NPrPhe(4-CF3)][Sar][hPhe(3-Cl-4-CF3)][Pro(4,4-F2)][Ac4c][NMeGly(cPent)]D-Morpholide; lactam N-11)
[1]; KD ratio HRAS/KRAS, SPR
  HRAS/KRAS (ratio of KD for GDP-bound HRAS wild-type to KD for KRAS): C (A compound having a KD ratio of 0.1 or more and less than 3 is denoted as C)
[2]; KD ratio NRAS/KRAS, SPR
  NRAS/KRAS (ratio of KD for GDP-bound NRAS wild-type to KD for KRAS): B (a compound having 3 or more and less than 10 is denoted as B)

## CCC[C@H]1C(=O)N[C@@H]([C@@H](C)CC)C(=O)N(C)CC(=O)N(C)[C@H]2C/C=C\CCN(C2=O)[C@@H](Cc2ccc(C)cc2)C(=O)N(C)CC(=O)N[C@@H](CCc2ccc(C(F)(F)F)c(Cl)c2)C(=O)N2C[C@H](CC)C[C@H]2C(=O)NC2(CC(C)(C)C2)C(=O)N(C)[C@@H](C2CCCC2)C(=O)N(C)[C@H](C(=O)N(C)C)CC(=O)N1C [PP2212]
[1]; SPR, GDP-bound HRAS wild-type vs GDP-bound KRAS wild-type
  HRAS/KRAS (ratio of KD value with respect to HRAS to KD value with respect to KRAS): B (a compound having 3 or more and less than 10 is denoted as B)
[2]; SPR, GDP-bound NRAS wild-type vs GDP-bound KRAS wild-type
  NRAS/KRAS (ratio of KD value with respect to NRAS to KD value with respect to KRAS): A (a compound having 10 or more and less than 20 is denoted as A)
